{"source": "patent US6083973A", "about": "“Methods for inhibiting mucin secretion using RAR α selective antagonists” (Syntex (U.S.A.) Inc., priority 1999, dated 2000)", "key": {"RXR receptors": {"system": "RXR receptors", "settings": "cited from earlier work"}, "[1]": {"system": "goblet cell hyperplasia in rats", "assay": "LPS-induced goblet cell hyperplasia, morphometric analysis", "assay_type": "in vivo, rat", "settings": "ATRA 2 mg/kg ip once daily", "experimental": "(§1) All-trans retinoic acid (ATRA) was evaluated for its effects on mucous hypersecretion in the rat model of endotoxin/lipopolysacharide (LPS)-induced lung inflammation (Steiger et al. J. Am. Respir. Cell Mol. Biol., 12:307-314 (1995)). Animals were divided into treatment groups of approximately six. Lung inflammation was induced in male Long Evans rats by repeated instillation of LPS (LPS derived from Pseudomonas aeriginos; Sigma Chemical) 400 μg/Kg/dose/day for three days. ATRA was dissolved in DMSO (20 mg/ml) and stored at -20 C. Fresh working stocks were prepared fresh daily by dilution in PBS to a final concentration of 2 mg/ml. Animals treated with ATRA (2 mg/kg ip) were dosed once daily by intraperitoneal injection, starting 24 hours prior to the first LPS challenge. Two control groups were included in the study, treatment with vehicle (DMSO/PBS) followed by LPS and treatment with ATRA alone. Animals were sacrificed 24 hours after the last LPS challenge by exsanguination under deep anesthesia.\nAfter lavage the lungs were perfused with 10% neutral buffered formalin by intratracheal instillation at a constant rate (5 ml at 1 ml/min). The left lobe was excised and immersed in fixative for 24 hours prior to processing. Standard methods were used to prepare 5 μm paraffin sections. […]"}, "MUC2 [2]": {"system": "MUC2", "assay": "MUC2 gene transactivation in NHBE cells, RT-PCR", "assay_type": "cell-based, human", "settings": "for MUC2 gene induction: 1×10^-7 M, Example 1; for MUC2 gene expression, compound alone: Example 3, antagonist 1×10^-6 M or agonist 1×10^-7 M", "experimental": "(§2) Transactivation of mucin genes in normal primary human bronchial epithelial cells (NHBE) was performed as described by Gray et al. Am. J. Respir. Biol., 14:104-112 (1996). Primary human airway epithelial cells were cultured on porous Transwell membranes (Corning/Costar) in defined media in the absence of all-trans retinoic acid (ATRA) for 7 days. After seven days, fresh media±ATRA or selective retinoid, was added to the basal culture compartment to create an air-liquid interface (ALI). ATRA and/or selective retinoids were used at a concentration or 1×10^-7 M. The selective retinoids used were: Compound X (RARα selective agonist), RXR agonist (SRI 11217) and anti-AP1 retinoid (SRI 11302). After seven additional days of culture the media was harvested for analysis of secreted mucin gene product using specific ELISA as previously described (Gray et al). The cell layer was lysed using a guanidinium-based buffer (TRIZOL/Sigma) for RNA extraction and analysis. Amplification of MUC2 and MUC5AC RNA was performed by standard RT-PCR using appropriate selective primer and mimics pairs (Guzman et al., Am. J. Physiol. 271 (Lung Cell Mol Physiol.15): L1023-L1028 (1996) and PCR products were detected in ethedium bromide stained agarose gels.\n(§3) Transactivation of mucin genes in NHBE was performed as described above with the exception that media was supplemented with RAR alpha (RARα), beta (RARβ), or gamma (RARγ)-selective retinoids on days 7 through day 14. The RAR alpha (RARα), beta (RARβ), or gamma (RARγ)-selective retinoids were compounds X, Y and CD-437 respectively.\n(§4) Transactivation of mucin genes in NHBE was performed as described above. On days 7 through day 14 cells were cultured with 1×10^-6 M RARα antagonist, Compound Z, alone or in combination with 1×10^-7 M ATRA or RARα selective agonist, Compound X. The effects on mucin gene transactivation and expression were determined by RT-PCR and ELISA as described above. RARα selective antagonist, Compound Z, had no effect on MUC2 or MUC5AC gene expression."}, "[3]": {"system": "LPS-induced mucin hypersecretion in rats", "assay": "Mucous hypersecretion in rat model of LPS-induced lung inflammation", "assay_type": "in vivo", "settings": "for mucous hypersecretion in rats: 10 mg/kg daily starting 72 hours prior to LPS challenge", "experimental": "as §1\nThe lungs were lavaged with phosphate buffered saline (2×5 ml) to wash out mucous layer. The lavage fluid (BAL) was centrifuged for 10 min at 500×g and the cell-free supernate was frozen and stored -20° C. until analyzed for secreted mucin by Alcian-blue/PAS dot blot assay to determine relative contribution of neutral and acidic mucins. Standard curves were generated using bovine intestinal mucins (Sigma) TYPE 1 (Alc. blue/acidic mucins) and TYPE II (PAS+/neutral mucin). Each sample was assayed in triplicate and data presented as […] total mucin. (FIG. 4b)\nThe effect of RARα selective antagonists Ia and Ib on mucous hypersecretion in the rat and mouse models of LPS-induced lung inflammation was evaluated according to the procedure of Example 4. Animals were treated with compound (10 mg/kg) or vehicle daily starting 72 hours prior to LPS challenge."}, "[4]": {"system": "mucin gene expression in human epithelial cells", "assay": "Mucin gene expression (MUC2 and MUC5AC) in human epithelial cells", "assay_type": "cell-based", "experimental": "as §2, §4"}, "[5]": {"system": "primary human bronchial epithelium", "assay": "Mucin protein secretion from NHBE cells, ELISA", "assay_type": "cell-based", "settings": "for mucin secretion: 1×10^-7 M, FIG. 1(b)", "experimental": "as §2\nCorresponding mucin protein secretion data are shown in FIG. 1(b) as ELISA data representing results from separate samples run in triplicate. Data presented as mean±sem. The mucin protein secretion data were consistent with gene induction results.\nas §4"}, "[6]": {"system": "RAR subtypes (α, β, and γ)", "settings": "cited from earlier work"}, "MUC5AC [7]": {"system": "MUC5AC", "assay": "MUC5AC gene transactivation in NHBE cells, RT-PCR", "assay_type": "cell-based, human", "settings": "for MUC5AC gene induction: 1×10^-7 M, Example 1; for MUC5AC gene expression, compound alone: Example 3, antagonist 1×10^-6 M or agonist 1×10^-7 M", "experimental": "as §2, §3, §4"}, "NIH-292 cells": {"system": "NIH-292 cells", "assay": "LPS-induced mucin gene expression in NIH-292 cells, real time RT-PCR", "assay_type": "cell-based, human", "settings": "added 24 hours prior to 10 μg/ml LPS", "experimental": "(§5) An in vitro assay was established to screen retinoid-based compounds for their effects on LPS-induced mucin gene expression using a continuous human lung epithelial cell line, NIH-292. NIH-292 cells were cultured in standard T-75 tissue culture flasks in DMEM/F12 media containing 10% fetal bovine serum (FBS). Upon confluence the media was changed to defined medium Optimem (Sigma) supplemented with 1% FBS 24 hours prior to challenge with 10 μg/ml LPS (P. aeriginos, Sigma Chemical). RAR selective antagonist, Compound Z, was added 24 hours prior to LPS challenge. ATRA and specific retinoids were prepared as DMSO stocks. Cells were harvested 6 or 24 hours after LPS challenge using a guanidinium-basedbuffer (TRIZOL/Sigma) for RNA extraction and analysis. Amplification of β-actin, MUC1, MUC2 and MUC5AC specific RNA was performed by using an automated fluorescent detection method for quantitation of real time RT-PCR (TAQMAN, Applied Biosystems/Perkin Elmer). Standard curves were generated for each of the relevant mucin RNAs using control plasmid. Analysis was performed in triplicate from duplicate samples."}, "MUC5AC [8]": {"system": "MUC5AC", "assay": "LPS-stimulated MUC5AC mRNA transcription, dose response", "assay_type": "cell-based", "settings": "Homo sapiens, normalized to glyceraldehyde phosphate 3-dehydrogenase, read-out: inhibition of MUC5AC gene transcription IC50", "experimental": "as §5\nCells were stimulated with LPS in the presence or absence of Ia. MUC5AC specific mRNA was measured and is graphed normalized relative to glyceraldehyde phosphate 3-dehydrogenase control."}, "[9]": {"system": "LPS-induced mucous hypersecretion in mice", "assay": "Mucous hypersecretion in mouse model of LPS-induced lung inflammation", "assay_type": "in vivo", "settings": "10 mg/kg daily starting 72 hours prior to LPS challenge", "experimental": "as §1, with “Two control groups were included in the study, treatment with vehicle (DMSO/PBS) followed by LPS and treatment with ATRA alone. Animals were sacrificed 24 hours after the last LPS challenge by exsanguination under deep anesthesia.” left out\nThe lungs were lavaged with phosphate buffered saline (2×5 ml) to wash out mucous layer. The lavage fluid (BAL) was centrifuged for 10 min at 500×g and the cell-free supernate was frozen and stored -20° C. until analyzed for secreted mucin by Alcian-blue/PAS dot blot assay to determine relative contribution of neutral and acidic mucins. […]\nThe effect of RARα selective antagonists Ia and Ib on mucous hypersecretion in the rat and mouse models of LPS-induced lung inflammation was evaluated according to the procedure of Example 4. […]"}, "MUC2 [10]": {"system": "MUC2", "settings": "G. An, et al.; cited from earlier work"}, "[11]": {"settings": "1×10^-6 M antagonist with 1×10^-7 M ATRA or Compound X"}, "[12]": {"settings": "even at the highest dose, 1×10^-6 M, Example 2"}}, "data": [{"molecule": "CC1=C(/C=C/C(C)=C\\C=C\\C(C)=C\\C(=O)O)C(C)(C)CCC1", "note": "[9-cis isomer of retinoic acid]", "values": [{"measurement": "binding to RXR receptors", "setting": "RXR receptors", "value": "bind instead to the 9-cis isomer of retinoic acid"}]}, {"molecule": "CC1=C(/C=C/C(C)=C/C=C/C(C)=C/C(=O)O)C(C)(C)CCC1", "note": "[ATRA, All-trans retinoic acid]", "values": [{"measurement": "LPS-induced goblet cell hyperplasia", "setting": "[1]", "value": "enhancement"}, {"measurement": "MUC2 gene induction", "setting": "MUC2 [2]", "value": "induce both MUC2 and MUC5AC gene induction"}, {"measurement": "MUC2 gene expression, compound alone", "setting": "MUC2 [2]", "value": "potent inducers"}, {"measurement": "LPS-induced mucin hypersecretion in rats", "setting": "[3]; ATRA 2 mg/kg ip once daily", "value": "enhancement"}, {"measurement": "mucin gene expression, specifically MUC2 and MUC5AC", "setting": "[4]; retinoid agonists", "value": "transactivates mucin gene expression"}, {"measurement": "mucin secretion", "setting": "[5]", "value": "increase in mucin secretion"}, {"measurement": "binding to the three RAR subtypes", "setting": "[6]", "value": "binds with approximately equal affinity to all the three RAR subtypes"}, {"measurement": "MUC5AC gene induction", "setting": "MUC5AC [7]", "value": "induce both MUC2 and MUC5AC gene induction"}, {"measurement": "MUC5AC gene expression, compound alone", "setting": "MUC5AC [7]", "value": "potent inducers"}, {"measurement": "binding to RXR receptors", "setting": "RXR receptors", "value": "do not bind to all-trans retinoic acid"}]}, {"molecule": "CCCCCCCOc1cc2c(cc1/C(C)=C/c1ccc(C(=O)O)cc1)C(C)(C)CCS2(=O)=O", "note": "[Compound Ia]", "values": [{"measurement": "inhibition of ATRA- or Compound X-induced MUC2", "setting": "MUC2 [2]; [11]", "value": "completely inhibited"}, {"measurement": "MUC2 gene expression, compound alone", "setting": "MUC2 [2]", "value": "no effect"}, {"measurement": "mucous hypersecretion in rats", "setting": "[3]", "value": "reduced the amount of mucous hypersecretion relative to vehicle"}, {"measurement": "inhibition of retinoid induced mucin gene expression", "setting": "[4]", "value": "inhibited"}, {"measurement": "inhibition of ATRA- or Compound X-induced mucin protein secretion", "setting": "[5]; 1×10^-6 M antagonist with 1×10^-7 M ATRA or Compound X, FIG. 3b", "value": "completely inhibited"}, {"measurement": "LPS induced mucin gene expression", "setting": "NIH-292 cells", "value": "inhibit LPS induced mucin gene expression"}, {"measurement": "IC50", "setting": "MUC5AC [8]", "value": "< 0.01", "unit": "µM"}, {"measurement": "mucous hypersecretion in mice", "setting": "[9]", "value": "reduced the amount of mucous hypersecretion relative to vehicle"}, {"measurement": "inhibition of ATRA- or Compound X-induced MUC5AC", "setting": "MUC5AC [7]; [11]", "value": "completely inhibited"}, {"measurement": "MUC5AC gene expression, compound alone", "setting": "MUC5AC [7]", "value": "no effect"}]}, {"molecule": "CCCCCCCOc1cc2c(cc1/C(C)=C/C=C/C(C)=C/C(=O)O)C(C)(C)CCS2(=O)=O", "note": "[Compound Ib]", "values": [{"measurement": "mucous hypersecretion in rats", "setting": "[3]", "value": "reduced the amount of mucous hypersecretion relative to vehicle"}, {"measurement": "inhibition of retinoid induced mucin gene expression", "setting": "[4]", "value": "inhibited"}, {"measurement": "mucous hypersecretion in mice", "setting": "[9]", "value": "reduced the amount of mucous hypersecretion relative to vehicle"}]}, {"molecule": "CC1(C)CCC(C)(C)c2cc(C(=O)Nc3ccc(C(=O)O)cc3)ccc21", "note": "[Compound X]", "values": [{"measurement": "MUC2 gene induction", "setting": "MUC2 [2]", "value": "induce both MUC2 and MUC5AC gene induction"}, {"measurement": "MUC2 gene activation", "setting": "MUC2 [2]; 1×10^-9 M, Example 2", "value": "most potent inducer"}, {"measurement": "MUC2 gene expression, compound alone", "setting": "MUC2 [2]", "value": "potent inducers"}, {"measurement": "Induction of MUC2", "setting": "MUC2 [2]; [12]", "value": "minimal"}, {"measurement": "mucin secretion", "setting": "[5]", "value": "increase in mucin secretion"}, {"measurement": "MUC5AC gene induction", "setting": "MUC5AC [7]", "value": "induce both MUC2 and MUC5AC gene induction"}, {"measurement": "MUC5AC gene activation", "setting": "MUC5AC [7]; 1×10^-9 M, Example 2", "value": "most potent inducer"}, {"measurement": "MUC5AC gene expression, compound alone", "setting": "MUC5AC [7]", "value": "potent inducers"}, {"measurement": "Induction of MUC5AC", "setting": "MUC5AC [7]; [12]", "value": "minimal"}]}, {"molecule": "CC(C)=C(c1ccc(C(=O)O)cc1)c1ccc2c(c1)C(C)(C)CCC2(C)C", "note": "[SRI 11217, 4-[1-(5,6,7,8-tetrahydro-5,5,8,8,-tetramethyl-2-naphthalenyl)-2-methylpropenyl]-benzoic acid]", "values": [{"measurement": "MUC2 gene induction", "setting": "MUC2 [2]", "value": "no effect on induction of either gene"}, {"measurement": "MUC5AC gene induction", "setting": "MUC5AC [7]", "value": "no effect on induction of either gene"}]}, {"molecule": "CC1=C(/C=C/C(C)=C/C=C/C(C)=C/CO)C(C)(C)CCC1", "note": "[retinol]", "values": [{"measurement": "expression of the MUC2 gene", "setting": "MUC2 [10]", "value": "down-regulated"}]}]}
